In patent US20180303807A1, “ANDROGEN RECEPTOR LIGANDS” (DUKE UNIVERSITY, priority 2015, published 2018):
Each block holds one compound with its values, some of them ahead of it.

How the values were obtained:
Assay type in all cases: cell-based
AR [1] = target: T1, AR (Homo sapiens, UniProt P10275); assay: Reporter gene assay, AR transcriptional (MMTV-Luc) in CV1 cells; conditions: pcDNA-AR + MMTV-Luc, 0.1 nM R1881 plus test compound, 24 hrs, read-out: B1 = AR transcriptional IC50 (μM) in CV1 cells
T1 construct: expressed in transfected cells; host or cells: CV1 cells
T1 sequence (P10275 1-920): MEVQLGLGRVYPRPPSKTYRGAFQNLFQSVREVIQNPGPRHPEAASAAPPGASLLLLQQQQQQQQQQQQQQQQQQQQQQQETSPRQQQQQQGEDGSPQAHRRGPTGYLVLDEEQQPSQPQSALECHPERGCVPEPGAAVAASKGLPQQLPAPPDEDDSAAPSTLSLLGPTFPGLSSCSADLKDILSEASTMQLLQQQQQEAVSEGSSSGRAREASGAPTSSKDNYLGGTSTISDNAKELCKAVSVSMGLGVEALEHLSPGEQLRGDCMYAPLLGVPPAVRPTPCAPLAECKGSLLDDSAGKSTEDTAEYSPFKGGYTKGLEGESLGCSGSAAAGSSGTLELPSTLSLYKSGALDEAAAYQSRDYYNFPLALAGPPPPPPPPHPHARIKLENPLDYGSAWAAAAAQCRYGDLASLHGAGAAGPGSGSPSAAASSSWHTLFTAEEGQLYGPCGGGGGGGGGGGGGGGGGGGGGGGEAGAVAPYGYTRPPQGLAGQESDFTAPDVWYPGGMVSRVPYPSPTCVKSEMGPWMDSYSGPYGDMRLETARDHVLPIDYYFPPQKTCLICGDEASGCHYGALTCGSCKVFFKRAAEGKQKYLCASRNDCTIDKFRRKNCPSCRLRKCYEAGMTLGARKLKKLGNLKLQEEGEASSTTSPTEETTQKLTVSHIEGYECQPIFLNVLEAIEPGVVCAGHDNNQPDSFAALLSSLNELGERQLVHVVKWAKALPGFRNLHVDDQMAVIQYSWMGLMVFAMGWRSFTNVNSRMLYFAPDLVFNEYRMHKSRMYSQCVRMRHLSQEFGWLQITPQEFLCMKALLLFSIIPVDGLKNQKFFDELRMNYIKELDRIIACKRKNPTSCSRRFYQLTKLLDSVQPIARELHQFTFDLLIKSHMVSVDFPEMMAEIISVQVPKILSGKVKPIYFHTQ
Procedure, shortened: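 CV1 cells transiently co-transfected with human AR, MMTV-Luc reporter and Renilla-Luc (transfection efficiency and toxicity read-out), then stimulated 24 h with 0.1 nM R1881 plus increasing test compound concentrations. Firefly and Renilla luciferase quantified by dual-luciferase assay; IC50 derived from concentration-response.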

CV1 cells = assay: Toxicity of test compound in the CV1 reporter gene assay (Renilla-Luc)
Description: Reporter Gene Assay (IC50 determination, Table 2, B1-B3). CV1 cells were seeded into 96-well cell culture plates and transfected with Lipofectin. For AR transcriptional assays, the DNA mixture consisted of pcDNA-AR, MMTV-Luc (androgen responsive reporter gene), and Renilla-Luc (for assessing transfection efficiency and toxicity). Following overnight incubation, cells were induced with hormone (0.1 nM R1881 (synthetic AR agonist) plus increasing concentrations of test compound) for 24 hrs. Cells were lysed and luciferase activity was quantified using Dual Luciferase Reagent (DLR). IC50 determination was assessed using GraphPad Prism software.

AR [2] = assay: Real-time PCR of AR target gene transcription in LNCaP-AR (AR overexpressing) cells, CRPC model; parameters: key to B5 = Relative antagonist activity (plus 0.1 nM R1881) of test compounds (20 μM) in AR overexpressing LNCaP cells (NKX3.1 AR target gene) / B7 = Relative antagonist activity (plus 0.1 nM R1881) of test compounds (20 μM) in AR overexpressing LNCaP cells (PSA AR target gene): a score of 1 indicates higher antagonist efficacy (highly desired activity) than benchmark compound enzalutamide; a score of 2 indicates equal antagonist efficacy to enzalutamide (desirable); a score of 3 indicates antagonist efficacy between enzalutamide and bicalutamide (less desirable activity); a score of 4 indicates antagonist efficacy equal to bicalutamide (liability); a score of 5 indicates antagonist efficacy worse than bicalutamide (liability); key to B4 = Relative agonist activity (no R1881) of test compounds (20 μM) in AR overexpressing LNCaP cells (NKX3.1 AR target gene) / B6 Relative agonist activity (no R1881) of test compounds (20 μM) in AR overexpressing LNCaP cells (PSA AR target gene): a score of 1 indicates less agonism (highly desired activity) than benchmark compound enzalutamide; a score of 2 indicates equal agonism to enzalutamide (desirable); a score of 3 indicates agonism between enzalutamide and bicalutamide (less desirable activity); a score of 4 indicates equal agonism to bicalutamide (liability); a score of 5 indicates higher agonism than bicalutamide (liability); conditions: 20 μM, score vs enzalutamide/bicalutamide; for B7 = Relative antagonist activity (plus 0.1 nM R1881) of test compounds (20 μM) in AR overexpressing LNCaP cells (PSA AR target gene): plus 0.1 nM R1881, PSA gene; for B4 = Relative agonist activity (no R1881) of test compounds (20 μM) in AR overexpressing LNCaP cells (NKX3.1 AR target gene): no R1881, NKX3.1 gene; for B5 = Relative antagonist activity (plus 0.1 nM R1881) of test compounds (20 μM) in AR overexpressing LNCaP cells (NKX3.1 AR target gene): plus 0.1 nM R1881, NKX3.1 gene
Description: Real-Time PCR (CRPC model of AR overexpressing prostate cancer cells, Table 2, B4-B7). LNCaP-AR (AR overexpressing cells) cells were seeded in 12-well plates in RPMI 1640 (8% charcoal-stripped fetal calf serum (CFS)). […] AR target gene transcription (PSA, NKX3.1, FKBP5) was assessed by realtime PCR.
For B4-B7, scoring system is based on the relative AR target gene agonist/antagonist activity of test compounds when compared to benchmark compounds enzalutamide or bicalutamide. […] The lack of agonist activity is desirable for therapies intended to treat CRPC. For B4 and B6, a score of 1 indicates less agonism (highly desired activity) than benchmark compound enzalutamide, a score of 2 indicates equal agonism to enzalutamide (desirable), a score of 3 indicates agonism between enzalutamide and bicalutamide (less desirable activity), a score of 4 indicates equal agonism to bicalutamide (liability), and a score of 5 indicates higher agonism than bicalutamide (liability). For B5 and B7 a score of 1 indicates higher antagonist efficacy (highly desired activity) than benchmark compound enzalutamide, a score of 2 indicates equal antagonist efficacy to enzalutamide (desirable), a score of 3 indicates antagonist efficacy between enzalutamide and bicalutamide (less desirable activity), a score of 4 indicates antagonist efficacy equal to bicalutamide (liability), and a score of 5 indicates antagonist efficacy worse than bicalutamide (liability) For B9, Compounds that degrade AR (greater than 50% degradation at 10 μM) are indicated.

IC50 (AR [1]): 3.8 µM
Compound: O=C1CCCC2=C1C(c1ccc(Cl)cc1Cl)c1c(ccc3ccccc13)N2 (centres unmarked) [Compound A7]
B2 = % Toxicity of test compound (20 μM) (CV1 cells): 75% | B3 = % Toxicity of test compound (60 μM) (CV1 cells): 91% | B4 = Relative agonist activity (no R1881) of test compounds (20 μM) in AR overexpressing LNCaP cells (NKX3.1 AR target gene) (AR [2]): 1 | B6 Relative agonist activity (no R1881) of test compounds (20 μM) in AR overexpressing LNCaP cells (PSA AR target gene) (AR [2]): 1 | B5 = Relative antagonist activity (plus 0.1 nM R1881) of test compounds (20 μM) in AR overexpressing LNCaP cells (NKX3.1 AR target gene) (AR [2]): 2 | B7 = Relative antagonist activity (plus 0.1 nM R1881) of test compounds (20 μM) in AR overexpressing LNCaP cells (PSA AR target gene) (AR [2]): 1

IC50 (AR [1]): 5.3 µM
Compound: Cn1c(=O)n(C)c2cc(C3C4=C(CC(C)(C)CC4=O)Nc4ccc5ccccc5c43)ccc21 (centres unmarked) [Compound A8]
B2 = % Toxicity of test compound (20 μM) (CV1 cells): 0% | B3 = % Toxicity of test compound (60 μM) (CV1 cells): 0% | B4 = Relative agonist activity (no R1881) of test compounds (20 μM) in AR overexpressing LNCaP cells (NKX3.1 AR target gene) (AR [2]): 2 | B6 Relative agonist activity (no R1881) of test compounds (20 μM) in AR overexpressing LNCaP cells (PSA AR target gene) (AR [2]): 1 | B5 = Relative antagonist activity (plus 0.1 nM R1881) of test compounds (20 μM) in AR overexpressing LNCaP cells (NKX3.1 AR target gene) (AR [2]): 1 | B7 = Relative antagonist activity (plus 0.1 nM R1881) of test compounds (20 μM) in AR overexpressing LNCaP cells (PSA AR target gene) (AR [2]): 1

Second part, the compound before the results:

Compound: CC1(C)CC(=O)C2=C(C1)Nc1ccc3ncccc3c1C2c1ccc([N+](=O)[O-])cc1 (centres unmarked) [Compound A2, 9,9-dimethyl-12-(4-nitrophenyl)-8,9,10,12-tetrahydrobenzo[b][4,7]phenanthrolin-11(7H)-one]
IC50 (AR [1]): 0.2 µM | B2 = % Toxicity of test compound (20 μM) (CV1 cells): 0% | B3 = % Toxicity of test compound (60 μM) (CV1 cells): 51% | B7 = Relative antagonist activity (plus 0.1 nM R1881) of test compounds (20 μM) in AR overexpressing LNCaP cells (PSA AR target gene) (AR [2]): 1

Compound: CC1(C)CC(=O)C2=C(C1)Nc1ccc3ccccc3c1C2c1ccc(C#N)cc1 (centres unmarked) [Compound A3]
IC50 (AR [1]): 1.6 µM | B2 = % Toxicity of test compound (20 μM) (CV1 cells): 0% | B3 = % Toxicity of test compound (60 μM) (CV1 cells): 24% | B4 = Relative agonist activity (no R1881) of test compounds (20 μM) in AR overexpressing LNCaP cells (NKX3.1 AR target gene) (AR [2]): 1 | B6 Relative agonist activity (no R1881) of test compounds (20 μM) in AR overexpressing LNCaP cells (PSA AR target gene) (AR [2]): 1 | B5 = Relative antagonist activity (plus 0.1 nM R1881) of test compounds (20 μM) in AR overexpressing LNCaP cells (NKX3.1 AR target gene) (AR [2]): 1 | B7 = Relative antagonist activity (plus 0.1 nM R1881) of test compounds (20 μM) in AR overexpressing LNCaP cells (PSA AR target gene) (AR [2]): 1

Compound: CC1(C)CC(=O)C2=C(C1)Nc1ccc3ccccc3c1C2c1ccc(Cl)c([N+](=O)[O-])c1 (centres unmarked) [Compound A6]
IC50 (AR [1]): 3.8 µM | B2 = % Toxicity of test compound (20 μM) (CV1 cells): 0% | B3 = % Toxicity of test compound (60 μM) (CV1 cells): 0% | B4 = Relative agonist activity (no R1881) of test compounds (20 μM) in AR overexpressing LNCaP cells (NKX3.1 AR target gene) (AR [2]): 1 | B6 Relative agonist activity (no R1881) of test compounds (20 μM) in AR overexpressing LNCaP cells (PSA AR target gene) (AR [2]): 1 | B5 = Relative antagonist activity (plus 0.1 nM R1881) of test compounds (20 μM) in AR overexpressing LNCaP cells (NKX3.1 AR target gene) (AR [2]): 1 | B7 = Relative antagonist activity (plus 0.1 nM R1881) of test compounds (20 μM) in AR overexpressing LNCaP cells (PSA AR target gene) (AR [2]): 1
